Data from patent US9968097B2 (priority 2012, dated 2018).
Structures can show the parent of a compound that is named as a salt. Where two headings read alike, the source gives them in different places.

Columns and labels:
Format in all cases: in vivo
[1] = system: Phytophthora infestans; conditions: tomatoes, preventive, evaluated 3 days after inoculation
[2] = system: Sphaerotheca fuliginea; test: Sphaerotheca test (cucumbers)/preventive; conditions: preventive, evaluated 7 days after inoculation
Text: Sphaerotheca Test (Cucumbers)/Preventive

[3] = system: Alternaria solani; test: Alternaria test (tomatoes)/preventive; conditions: preventive, evaluated 3 days after inoculation
Text: Alternaria Test (Tomatoes)/Preventive

[4] = system: Venturia inaequalis; test: Venturia test (apples)/preventive; conditions: 100 ppm a.i., preventive, evaluated 10 days after inoculation
Text: Venturia Test (Apples)/Preventive

[5] = system: Botrytis cinerea; test: Botrytis test (beans)/preventive; conditions: 10 ppm a.i., preventive, lesion size 2 days after inoculation
Text: Botrytis Test (Beans)/Preventive

CCCOC(=O)NCCCN(C)C [F220 propamocarb-HCl, propamocarb hydrochloride]
Efficacy in % found ([1]; 400 ppm a.i.): 3%
Efficacy in % found ([2]; 400 ppm a.i.): 0%
Efficacy in % found ([3]; Table D1, 200 ppm a.i.): 30%

COCC(=O)N(c1c(C)cccc1C)C(C)C(=O)OC (stereo not drawn) [F241 metalaxyl, metalaxyl]
Efficacy in % found ([3]; Table D2, 100 ppm a.i.): 8%

N#Cc1c[nH]cc1-c1cccc2c1OC(F)(F)O2 [F248 fludioxonil, fludioxonil]
Efficacy in % found ([1]; 100 ppm a.i.): 12%
Efficacy in % found [4]: 0%
Efficacy in % found ([2]; 100 ppm a.i.): 83%
Efficacy in % found [5]: 87%

metalaxyl-M (mefenoxam) [F242 mefenoxam]
Efficacy in % found ([3]; Table D2, 100 ppm a.i.): 0%
